Earlier results as cited in patent publication US20240300988A1, “CRYSTALLINE FORMS OF PENTAAZA MACROCYCLIC RING COMPLEX” (Galera Labs, LLC, priority 2023, published 2024).

Test system: VEGFr inhibitor-induced pulmonary disease
Conditions: rat model; Tuder et al., Am. J. Respir. Cell Mol. Biol., 29, 88-97 (2003)

[Cl][Mn][Cl].c1cc2nc(c1)CN[C@H]1CCCC[C@@H]1NCCN[C@H]1CCCC[C@@H]1NC2 [GC4419]
effect on VEGFr inhibitor-induced pulmonary disease: attenuate VEGFr inhibitor-induced pulmonary disease
